From ChEMBL document CHEMBL1201862, “PubChem BioAssay data set” (2004)
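These data come from cells grown in 96-well plates and exposed to compound for 48 hours at five concentrations. GI50 is the concentration that inhibits growth by half.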 Calls of active or inactive are those of the source. Cut-off read from the data, not from the text of the source: active = GI50 up to about 1.1 µM and inactive = higher.

Columns and labels:
Assay in all cases: inhibition of tumour cell growth, NCI panel, 48 h
SK-MEL-2 = test system: SK-MEL-2
U-251 = test system: U-251
OVCAR-8 = test system: OVCAR-8
NCI-H23 = test system: NCI-H23
BT-549 = test system: BT-549
Hs-578T = test system: Hs-578T
SK-MEL-5 = test system: SK-MEL-5
UACC-62 = test system: UACC-62
TK-10 = test system: TK-10
A498 = test system: A498
HT-29 = test system: HT-29
SNB-19 = test system: SNB-19
OVCAR-4 = test system: OVCAR-4
UO-31 = test system: UO-31
PC-3 = test system: PC-3
MDA-MB-435 = test system: MDA-MB-435
HOP-92 = test system: HOP-92
IGROV-1 = test system: IGROV-1
SF-539 = test system: SF-539
Malme-3M = test system: Malme-3M
HOP-62 = test system: HOP-62
EKVX = test system: EKVX
OVCAR-3 = test system: OVCAR-3
COLO 205 = test system: COLO 205
786-0 = test system: 786-0
ACHN = test system: ACHN
SK-OV-3 = test system: SK-OV-3
SK-MEL-28 = test system: SK-MEL-28
MDA-N = test system: MDA-N
OVCAR-5 = test system: OVCAR-5
MCF7 = test system: MCF7
NCI/ADR-RES = test system: NCI/ADR-RES
NCI-H460 = test system: NCI-H460
SF-268 = test system: SF-268
DU-145 = test system: DU-145
RXF 393 = test system: RXF 393
CAKI-1 = test system: CAKI-1
K562 = test system: K562
A549 = test system: A549
MDA-MB-231 = test system: MDA-MB-231
KM12 = test system: KM12
SF-295 = test system: SF-295
CCRF-CEM = test system: CCRF-CEM
HCT-116 = test system: HCT-116
SR = test system: SR
NCI-H522 = test system: NCI-H522
LOX IMVI = test system: LOX IMVI
HCT-15 = test system: HCT-15
RPMI-8226 = test system: RPMI-8226
SN12C = test system: SN12C
MOLT-4 = test system: MOLT-4
HL-60 = test system: HL-60
UACC-257 = test system: UACC-257
SW-620 = test system: SW-620
T47D = test system: T47D
M14 = test system: M14
NCI-H226 = test system: NCI-H226
SNB-75 = test system: SNB-75

SMILES: COc1c(C(C)(C)C)cc(CC2C(=O)C=CC2=O)cc1C(C)(C)C
- GI50 (SK-MEL-2): 19 µM (inactive)
- GI50 (U-251): 18.2 µM (inactive)
- GI50 (OVCAR-8): 9.68 µM (inactive)
- GI50 (NCI-H23): 22.4 µM (inactive)
- GI50 (BT-549): 23.8 µM (inactive)
- GI50 (Hs-578T): 27 µM (inactive)
- GI50 (SK-MEL-5): 17.3 µM (inactive)
- GI50 (UACC-62): 17.9 µM (inactive)
- GI50 (TK-10): 5.92 µM (inactive)
- GI50 (A498): 18 µM (inactive)
- GI50 (HT-29): 15.5 µM (inactive)
- GI50 (SNB-19): 19.1 µM (inactive)
- GI50 (OVCAR-4): 21.2 µM (inactive)
- GI50 (UO-31): 8.61 µM (inactive)
- GI50 (PC-3): 15.8 µM (inactive)
- GI50 (MDA-MB-435): 15.3 µM (inactive)
- GI50 (HOP-92): 16.1 µM (inactive)
- GI50 (IGROV-1): 14.2 µM (inactive)
- GI50 (SF-539): 11.1 µM (inactive)
- GI50 (Malme-3M): 17.2 µM (inactive)
- GI50 (HOP-62): 18.4 µM (inactive)
- GI50 (EKVX): 17.7 µM (inactive)
- GI50 (OVCAR-3): 13.9 µM (inactive)
- GI50 (COLO 205): 6.75 µM (inactive)
- GI50 (786-0): 2.86 µM (inactive)
- GI50 (ACHN): 8.47 µM (inactive)
- GI50 (SK-OV-3): 25.1 µM (inactive)
- GI50 (SK-MEL-28): 16.6 µM (inactive)
- GI50 (MDA-N): 15.2 µM (inactive)
- GI50 (OVCAR-5): 18.3 µM (inactive)
- GI50 (MCF7): 16.7 µM (inactive)
- GI50 (NCI/ADR-RES): 32 µM (inactive)
- GI50 (NCI-H460): 20.2 µM (inactive)
- GI50 (SF-268): 19.1 µM (inactive)
- GI50 (DU-145): 6.53 µM (inactive)
- GI50 (RXF 393): 14.8 µM (inactive)
- GI50 (CAKI-1): 15.3 µM (inactive)
- GI50 (K562): 4.93 µM (inactive)
- GI50 (A549): 24.3 µM (inactive)
- GI50 (MDA-MB-231): 18.2 µM (inactive)
- GI50 (KM12): 17.4 µM (inactive)
- GI50 (SF-295): 20.2 µM (inactive)
- GI50 (CCRF-CEM): 2.29 µM (inactive)
- GI50 (HCT-116): 3.13 µM (inactive)
- GI50 (SR): 3.89 µM (inactive)
- GI50 (NCI-H522): 2.25 µM (inactive)
- GI50 (LOX IMVI): 11.1 µM (inactive)
- GI50 (HCT-15): 14.1 µM
- GI50 (RPMI-8226): 2.95 µM (inactive)
- GI50 (SN12C): 26.5 µM (inactive)
- GI50 (MOLT-4): 2.93 µM (inactive)
- GI50 (HL-60): 4.34 µM (inactive)
- GI50 (UACC-257): 17.5 µM (inactive)
- GI50 (SW-620): 6.92 µM (inactive)
- GI50 (T47D): 4.18 µM (inactive)
- GI50 (M14): 17.9 µM (inactive)

SMILES: CC1(C)OCC(C2OC(C)(C)OC2[C@H]2O[C@@]3(O)[C@H]4[C@H](C=CC[C@@H]42)[C@@H](OCc2ccccc2)[C@H](OCc2ccccc2)[C@H]3OCc2ccccc2)O1 (stereo not given in full)
- GI50 (SK-MEL-2): 20.7 µM (inactive)
- GI50 (U-251): 53.6 µM (inactive)
- GI50 (OVCAR-8): 22.7 µM (inactive)
- GI50 (NCI-H23): 28.4 µM (inactive)
- GI50 (BT-549): 72.3 µM (inactive)
- GI50 (Hs-578T): > 100 µM (inactive)
- GI50 (SK-MEL-5): 43.2 µM (inactive)
- GI50 (UACC-62): 19.3 µM (inactive)
- GI50 (TK-10): 32.4 µM (inactive)
- GI50 (A498): > 100 µM (inactive)
- GI50 (HT-29): 17.9 µM (inactive)
- GI50 (SNB-19): 63.7 µM (inactive)
- GI50 (OVCAR-4): 41 µM (inactive)
- GI50 (UO-31): 31 µM (inactive)
- GI50 (PC-3): 31 µM (inactive)
- GI50 (MDA-MB-435): 31.7 µM (inactive)
- GI50 (HOP-92): 44.2 µM (inactive)
- GI50 (IGROV-1): 71 µM (inactive)
- GI50 (SF-539): 27.2 µM (inactive)
- GI50 (Malme-3M): > 100 µM (inactive)
- GI50 (NCI-H226): 59.3 µM (inactive)
- GI50 (HOP-62): > 100 µM (inactive)
- GI50 (EKVX): 33.7 µM (inactive)
- GI50 (OVCAR-3): 52.2 µM (inactive)
- GI50 (COLO 205): > 100 µM (inactive)
- GI50 (786-0): 35 µM (inactive)
- GI50 (ACHN): > 100 µM (inactive)
- GI50 (SK-OV-3): > 100 µM (inactive)
- GI50 (SK-MEL-28): > 100 µM (inactive)
- GI50 (MDA-N): 17.9 µM (inactive)
- GI50 (OVCAR-5): 54.3 µM (inactive)
- GI50 (SNB-75): 27.9 µM (inactive)
- GI50 (MCF7): 15.2 µM (inactive)
- GI50 (NCI/ADR-RES): 28.6 µM (inactive)
- GI50 (NCI-H460): 17.9 µM (inactive)
- GI50 (SF-268): 70 µM (inactive)
- GI50 (DU-145): 61 µM (inactive)
- GI50 (RXF 393): 16.5 µM (inactive)
- GI50 (CAKI-1): 79.1 µM (inactive)
- GI50 (K562): 23.9 µM (inactive)
- GI50 (A549): 24.8 µM (inactive)
- GI50 (MDA-MB-231): 94.8 µM (inactive)
- GI50 (KM12): 47.4 µM (inactive)
- GI50 (SF-295): > 100 µM (inactive)
- GI50 (CCRF-CEM): 8.63 µM (inactive)
- GI50 (HCT-116): 16.1 µM (inactive)
- GI50 (SR): 11 µM (inactive)
- GI50 (NCI-H522): 37.1 µM (inactive)
- GI50 (LOX IMVI): 22.6 µM (inactive)
- GI50 (HCT-15): 21.9 µM
- GI50 (SN12C): 41.2 µM (inactive)
- GI50 (MOLT-4): 12.5 µM (inactive)
- GI50 (HL-60): 14.4 µM (inactive)
- GI50 (UACC-257): 18.8 µM (inactive)
- GI50 (SW-620): 27.8 µM (inactive)
- GI50 (T47D): 34.2 µM (inactive)
- GI50 (M14): 59.3 µM (inactive)

SMILES: Cc1nn(-c2ccccc2)c2c1C(c1ccc(Cl)cc1)NC(=S)N2 (stereo not given)
- GI50 (SK-MEL-2): 17.5 µM (inactive)
- GI50 (U-251): 19.5 µM (inactive)
- GI50 (OVCAR-8): 22.5 µM (inactive)
- GI50 (NCI-H23): 18.9 µM (inactive)
- GI50 (BT-549): 25.9 µM (inactive)
- GI50 (Hs-578T): 29 µM (inactive)
- GI50 (SK-MEL-5): 20.3 µM (inactive)
- GI50 (UACC-62): 22.3 µM (inactive)
- GI50 (TK-10): 18.7 µM (inactive)
- GI50 (A498): 23.1 µM (inactive)
- GI50 (HT-29): 30.5 µM (inactive)
- GI50 (SNB-19): 28.6 µM (inactive)
- GI50 (OVCAR-4): 54.5 µM (inactive)
- GI50 (UO-31): 15 µM (inactive)
- GI50 (PC-3): 18.9 µM (inactive)
- GI50 (MDA-MB-435): 21.5 µM (inactive)
- GI50 (HOP-92): 7.18 µM (inactive)
- GI50 (IGROV-1): 12.6 µM (inactive)
- GI50 (SF-539): 18.5 µM (inactive)
- GI50 (Malme-3M): 28.2 µM (inactive)
- GI50 (NCI-H226): 25.9 µM (inactive)
- GI50 (HOP-62): 16.1 µM (inactive)
- GI50 (EKVX): 25.8 µM (inactive)
- GI50 (OVCAR-3): 32.4 µM (inactive)
- GI50 (COLO 205): 17.2 µM (inactive)
- GI50 (786-0): 15.6 µM (inactive)
- GI50 (ACHN): 20.7 µM (inactive)
- GI50 (SK-OV-3): 22.9 µM (inactive)
- GI50 (MDA-N): 29.4 µM (inactive)
- GI50 (OVCAR-5): 27.5 µM (inactive)
- GI50 (SNB-75): 48.5 µM (inactive)
- GI50 (MCF7): 28.4 µM (inactive)
- GI50 (NCI/ADR-RES): 24.3 µM (inactive)
- GI50 (NCI-H460): 23 µM (inactive)
- GI50 (SF-268): 25.8 µM (inactive)
- GI50 (DU-145): 88.9 µM (inactive)
- GI50 (RXF 393): 15.7 µM (inactive)
- GI50 (CAKI-1): 27.2 µM (inactive)
- GI50 (K562): 36.1 µM (inactive)
- GI50 (A549): 24.6 µM (inactive)
- GI50 (MDA-MB-231): 16.5 µM (inactive)
- GI50 (KM12): 23.1 µM (inactive)
- GI50 (SF-295): 24.5 µM (inactive)
- GI50 (CCRF-CEM): 20.9 µM (inactive)
- GI50 (HCT-116): 20 µM (inactive)
- GI50 (SR): 36.6 µM (inactive)
- GI50 (NCI-H522): 14 µM (inactive)
- GI50 (LOX IMVI): 16.3 µM (inactive)
- GI50 (HCT-15): 17.5 µM
- GI50 (RPMI-8226): 19.1 µM (inactive)
- GI50 (SN12C): 19.1 µM (inactive)
- GI50 (MOLT-4): 38.6 µM (inactive)
- GI50 (HL-60): 31.9 µM (inactive)
- GI50 (UACC-257): 36.6 µM (inactive)
- GI50 (SW-620): 23 µM (inactive)
- GI50 (T47D): > 100 µM (inactive)
- GI50 (M14): 21.9 µM (inactive)
